Reference: patent US4386211A, “Anti-ulcer urea compounds” (G. D. Searle & Co., priority 1981, dated 1983)

Assays:
H-2 receptors = H-2 receptors (Rattus norvegicus, UniProt P25102); experiment: Rat uterus assay: reversal of histamine inhibition of electrically induced contractions; conditions: isolated rat uterine smooth muscle; dose ratios of 2 or more indicate activity
Protocol: Histamine reduces contractions induced by electrical stimulation of the isolated rat uterine smooth muscle, and histamine H-2 antagonists reverse this inhibition. The dose ratio for a specific concentration of test compound is determined by an assay procedure that compares the inhibitory effect of two concentrations of histamine in the presence of the test compound to the inhibitory effect of two concentrations of histamine in the absence of the test compound. The dose ratio is defined as the ratio of the concentration of histamine in the presence of the test compound to the concentration of histamine in the absence of the test compound where both concentrations produce the same inhibition of the electrical response. Dose ratios of 2 or more indicate activity. Compounds that are active at 40 ug/ml will be tested against isoproterenol at the same concentration in a similar test. Compound concentrations that are active against histamine but not against isoproterenol will be classified as specific H-2 antagonists.
The same type of receptors H-2 are involved in inhibition of contractions of the rat uterus and stimulation of gastric acid secretion. The rat uterus is therefore used as a model upon which to test for histamine H-2 antagonists that may be effective in treating peptic ulcers.

gastric acid secretion = conditions: in vivo; cited from earlier work
ulcer formation = conditions: in vivo; cited from earlier work
[1] = humans; cited from earlier work
H2 receptor = experiment: Lipolysis assay: histamine-stimulated lipolysis in isolated fat cells; assay type: cell-based; conditions: isolated dog fat cells, histamine 2×10^-6 M; active = 50 percent or more inhibition
Protocol: Isolated fat cells of dogs are prepared from adipose tissue. Cells are incubated in the presence or absence of histamine at 2×10^-6 M. Additional flasks contain the compound to be tested, plus histamine. At the end of the incubation the cell cultures are analyzed for glycerol content, and results are converted into a lipolysis rate. The stimulation of lipolysis attributed to histamine (D) is the difference between the rate observed in its presence and absence:
These figures are then converted to a percent inhibition by the formula:
Percent inhibition=(D-E)/D×100

Sequence of H-2 receptors (P25102 whole entry): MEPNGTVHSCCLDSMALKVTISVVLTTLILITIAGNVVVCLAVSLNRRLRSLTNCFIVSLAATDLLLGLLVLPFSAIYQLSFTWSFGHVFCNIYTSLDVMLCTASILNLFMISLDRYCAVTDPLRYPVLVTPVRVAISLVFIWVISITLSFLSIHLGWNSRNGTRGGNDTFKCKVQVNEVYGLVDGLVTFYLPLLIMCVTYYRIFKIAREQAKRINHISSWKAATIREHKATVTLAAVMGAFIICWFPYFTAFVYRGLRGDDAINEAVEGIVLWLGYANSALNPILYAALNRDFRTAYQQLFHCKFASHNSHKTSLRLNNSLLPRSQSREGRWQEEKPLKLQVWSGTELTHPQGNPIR

activity in rat uterus assay (H-2 receptors) | Structure (SMILES) | gastric acid secretion (gastric acid secretion) | ulcer formation (ulcer formation) | severe toxic symptoms [1] | untoward effects observed [1] | classification in lipolysis assay (active against histamine but not norepinephrine = specific) (H2 receptor)
active | CNC(=S)NCCCCc1cnc[nH]1 [burimamide] | inhibit | inhibit |  |  | 
active | C/N=C(\S)NCCSCc1[nH]cnc1C [metiamide] | inhibit | inhibit |  |  | specific inhibitors

Structure (SMILES) | activity in rat uterus assay (H-2 receptors) | gastric acid secretion (gastric acid secretion) | ulcer formation (ulcer formation) | severe toxic symptoms [1] | untoward effects observed [1] | classification in lipolysis assay (active against histamine but not norepinephrine = specific) (H2 receptor)
CN/C(=N/CCSCc1nc[nH]c1C)NC#N [cimetidine] | active | inhibit | inhibit | no severe toxic symptoms | gynecomastia, elevated SGOT, SGPT and creatine, and increases in serum gastrin | specific inhibitors
